The source of these data is US20100305150A1, “TUBEROUS SCLEROSIS TREATMENT” (priority 2006, published 2010).

Test [1] deals with kidney and liver tumors in Tsc2+/− mice. Description: Treatment trial in Tsc2+/− mouse model of Tsc with carcinogen ENU (1 month study). Type of test: in vivo. The settings on record: ENU to accelerate kidney tumor formation. Here is the method: (§1) Also trials of treatment with a Compound A in mouse models of Tsc may be carried out (1 month study). A first trial is performed in the Tsc1+/− mice, in which there is a sex effect on tumor development, so that female mice are studied only. A second trial is performed in Tsc2+/− mice, in which the use of the carcinogen ENU is performed to enhance and accelerate the rate of tumor formation in the kidney.

Test [2] has as its system NF1 deficient cell or animals (mice) models. Description: Activity in neurofibromatosis, NF1 deficient cell or animal models. The text has this: Activity in neurofibromatosis may be determined in NF1 deficient cell or animals (mice) models, e.g. analogously to TSC deficient cell or animals (mice) models.
Test [3] relates to Tsc1−/− and Tsc2−/− and control MEF cell lines. Put plainly: Growth of Tsc1−/−, Tsc2−/− and control MEF cell lines, MTT assay. The test is classed as cell-based. Conditions: Tsc1 null and control MEF cell lines. The text has this:
MEF cell lines are generated in which there is loss of either Tsc1 or Tsc2 and which have a profound decrease in signaling through Akt. Decreased Akt activation may be seen in response to all stimuli, including serum, PDGF, EGF, insulin, and IGF1. […] In addition, over-expression of PDGFRα by short or long-term transfection leads to increased Akt phosphorylation and stimulation in response to multiple growth factors.
Signaling in Tsc 1 or Tsc 2 null MEFs in response to IGF1 in combination with a Compound A may be explored. Wortmannin may be used as an […].
Growth of Tsc1−/− and Tsc2−/− and control MEF cell lines in serum may be assessed in triplicate wells of cells plated at uniform density using the MTT assay. Growth responses are normalized individually for each cell line, to growth in the absence of any stimulation.
A general note: Formazan colour is commonly taken as a measure of viable cells.

Test [4] concerns kidney and liver tumors in Tsc1+/− mice. Put plainly: Treatment trial in Tsc1+/− mouse model of Tsc (1 month study). Type of test: in vivo. Conditions: female mice only. As to the method:
as §1

On to `CO[C@H]1C[C@@H]2CC[C@@H](C)[C@@](O)(O2)C(=O)C(=O)N2CCCC[C@H]2C(=O)O[C@H]([C@H](C)C[C@@H]2CC[C@@H](OCCO)[C@H](OC)C2)CC(=O)[C@H](C)/C=C(\C)[C@@H](O)[C@@H](OC)C(=O)[C@H](C)C[C@H](C)/C=C/C=C/C=C/1C` [Compound A, 40-O-(2-hydroxyethyl)-rapamycin], for which the “reduction of kidney and liver tumors” value was “dramatic effect in reducing kidney and liver tumors” in test [1]; “dramatic effect in reducing kidney and liver tumors” in test [4]. Further, the “activity in neurofibromatosis assays” value in test [2] is “shows activity”. In test [3] (IGF1 stimulation), the “growth response of the cells to IGF1” value is given as “blocks any growth response of the cells to IGF1”. Also, the “growth of the cell lines (MTT assay)” value in test [3] (serum or IGF1 stimulation, all conditions) is given as “significantly reduces growth under all conditions”.
